Measurements as given in paper PMC7738508, “A therapeutic combination of two small molecule toxin inhibitors provides broad preclinical efficacy against viper snakebite” (Nature Communications, 2020).
pIC50: −log10 of the molar value. Several values for one entry are separate records, joined by “and”; a condition that tells them apart may be missing. Identical values can stand only once.

Tests used:
[1] = system: procoagulant activity of Echis ocellatus venom (citrated bovine plasma); test: plasma clotting assay; type: biochemical; details: Echis ocellatus venom 100 ng, independent repeats
Method: (§1) We used a previously developed plasma clotting assay[35] to measure venom-induced coagulation. Briefly, 100 ng of each venom was incubated at 37 °C for 30 min in the presence or absence of inhibitors (150 µM to 150 nM final concentrations). The final reaction consisted of 10 µl venom ± inhibitors in PBS, 20 µl 20 mM CaCl2, and 20 µl citrated bovine plasma (VWR). The samples were pipetted in triplicate into 384-well plates, and absorbance monitored at 595 nm for 2 h at 25 °C on an Omega FLUOstar instrument. We calculated the maximum clotting velocity of each of the curves as per clot waveform analysis, by calculating the maximum of the first derivative. The means of at least three independent experimental runs for each condition were plotted at each inhibitor concentration with SEMs.

[2] = system: procoagulant activity of Bothrops asper venom (citrated bovine plasma); test: plasma clotting assay; type: biochemical; details: Bothrops asper venom 100 ng, independent repeats
Method: as §1

[3] = system: SVMP bioactivity of the four active venoms (E. ocellatus, E. carinatus, B. asper, B. arietans); test: in vitro kinetic fluorogenic SVMP assay, viper venoms overall; type: biochemical
Method: (§2) The SVMP assay measuring metalloproteinase activity and the plasma assay measuring coagulation in the presence or absence of venoms and inhibitors were performed as previously described. The SVMP assay kinetically measured cleavage of a quenched fluorogenic substrate (ES010, R&D Biosystems) by venom in the presence or absence of inhibitors.
(§3) Briefly, 10 µl of the substrate (supplied as a 6.2 mM stock) was used per 5 ml reaction buffer (150 mM NaCl, 50 mM Tris-Cl pH 7.5). Reactions consisted of 10 µl of venom ± inhibitors in PBS and 90 µl of substrate. Venoms were used at 1 µg/reaction and final inhibitor concentrations ranged from 150 µM to 150 nM. Samples were preincubated for 30 min at 37 °C and pipetted in triplicate into 384-well plates (Greiner). Thereafter, data was collected on an Omega FLUOstar (BMG Labtech) instrument at an excitation wavelength of 320 nm and emission wavelength of 405 nm at 25 °C for 1 h. The areas under the curve (AUCs) in the 0–40 min interval were calculated for each sample using MARS data analysis software v3.31 (BMG Labtech); this time point was chosen as the time where all fluorescence curves had reached a plateau (maximum fluorescence). For comparing venom-only samples, the means of at least three independent experimental runs for each condition, expressed as AUCs (n ≥ 3), were plotted at each inhibitor concentration with standard error of the mean (SEM). To determine inhibitor efficacy, the AUCs for each of the samples that consisted of venom + inhibitors were transformed and expressed as percentages of the venom-only sample (where the venom was 100%). The negative control (PBS-only) was also expressed relative to the venom, and the variation in background was presented as an interval delineated by the lowest and highest values in the PBS-only samples across concentrations and inhibitors for a specific venom.

[4] = system: Echis ocellatus venom SVMP activity; test: fluorogenic SVMP assay; type: biochemical; details: independent repeats
Method: as §2, §3

[5] = system: Bitis arietans venom SVMP activity; test: fluorogenic SVMP assay; type: biochemical; details: independent repeats
Method: as §2, §3

[6] = system: Echis carinatus venom SVMP activity; test: fluorogenic SVMP assay; type: biochemical; details: independent repeats
Method: as §2, §3

[7] = system: Bothrops asper venom SVMP activity; test: fluorogenic SVMP assay; type: biochemical; details: independent repeats
Method: as §2, §3

[8] = system: procoagulant activity of Echis carinatus venom (citrated bovine plasma); test: plasma clotting assay; type: biochemical; set-up: key: max of first derivative of A595 clot curve (max clotting velocity); details: Echis carinatus venom 100 ng, independent repeats
Method: as §1

[9] = system: coagulopathic activity of Daboia russelii venom (citrated bovine plasma); test: plasma clotting assay; type: biochemical; set-up: key to maximum clotting velocity: max of first derivative of A595 clot curve (max clotting velocity); details: for maximum clotting velocity: Daboia russelii venom 100 ng, independent repeats
Method: as §1

[10] = system: procoagulant activity of viper venoms (citrated bovine plasma); test: plasma clotting assay, viper venoms overall; type: biochemical
Method: as §1

E. ocellatus venom [11] = details: cited from earlier work
[12] = cited from earlier work
E. ocellatus venom [13] = test: in vivo preincubation model of envenoming (i.v.); set-up: species or system CD-1 mice
Method: All animal experiments were conducted using protocols approved by the Animal Welfare and Ethical Review Boards of the Liverpool School of Tropical Medicine and the University of Liverpool, and performed in specific pathogen-free conditions under licensed approval (PPL #4003718 and #P5846F90) of the UK Home Office and in accordance with the Animal [Scientific Procedures] Act 1986 and institutional guidance on animal care. All experimental animals (18–20 g [4–5 weeks old], male, CD-1 mice, Charles River, UK) were housed in groups of five with environmental enrichment, water and food ad libitum and their health monitored daily during acclimatization. The experimental design was based upon 3R-refined WHO-recommended protocols[28],[41], with animals randomized and observers being blinded to the experimental condition. The median lethal doses (venom LD50) used for E. ocellatus (Nigeria), E. carinatus (India), B. asper (Costa Rica), D. russelii (Sri Lanka) and B. arietans (Nigeria) venoms were previously determined[25],[41],[44],[45].
All experimental doses were prepared to a volume of 200 µl in PBS and incubated at 37 °C for 30 min prior to their intravenous injection via the tail vein. Animals were monitored for 6 h, and euthanized via rising concentrations of CO2 upon observation of previously defined humane end points that are predicators of lethality (e.g., seizure, pulmonary distress, paralysis, hemorrhage)[28]. Deaths, time of death, and survivors were recorded; where death/time of death actually represents the implementation of euthanasia based on defined humane end points.
For all experimental animals described above, blood samples were collected via cardiac puncture immediately post-euthanasia. Plasma was separated by centrifugation at 400 × g for 10 min and stored at −80 °C. We assessed the levels of thrombin-antithrombin complexes (TAT) and soluble thrombomodulin using mouse ELISA Kits (ab137994 and ab209880, Abcam), following the manufacturer’s protocol. All available plasma samples (some were unobtainable via cardiac puncture due to extensive internal hemorrhage) were assessed if the time of death within the group varied, whereas three samples were randomly chosen if the time of death was the same (e.g., either very rapid death within 2 min, or survival until the end of the experiment [360 min or 24 h]). The resulting data was plotted as the median of duplicate measurements for each animal and is presented with standard deviations (SDs).

[14] = system: Bitis arietans venom SVSP activity; test: chromogenic SVSP assay; type: biochemical; details: independent repeats
Method: (§4) SVSP activity was measured using a chromogenic substrate (S-2288, Cambridge Bioscience). Reactions consisted of 15 µl of venom ± inhibitors in PBS, 15 µl of assay buffer (100 mM Tris-Cl pH 8.5, 100 mM NaCl) and 15 µl of 6 mM substrate. A positive venom-only control, a negative control containing 15 µl of PBS and a drug-only control (where applicable) were also included. The final substrate concentration was 2 mM and venoms were used at 1 µg/reaction. When testing inhibitors, these were preincubated with the venoms for 30 min at 37 °C with concentrations ranging from 150 µM to 150 nM (tenfold dilutions). The samples were pipetted in triplicate into 384-well plates (Greiner) and absorbance at 405 nm was monitored kinetically for ~30 min on an Omega FLUOstar instrument (BMG Labtech). Given the linearity of the resulting slopes, negative control readings (PBS) were subtracted from each reading and the rate of substrate consumption calculated by measuring the slope between 0 and 5 min. The mean rates (expressed as ΔAbs/time/µg venom) of at least three independent experimental runs for each condition (n ≥ 3) were plotted at each inhibitor concentration with SEMs using Prism v8 software (GraphPad).

[15] = system: Echis carinatus venom SVSP activity; test: chromogenic SVSP assay; type: biochemical; details: independent repeats
Method: as §4

[16] = system: Bothrops asper venom SVSP activity; test: chromogenic SVSP assay; type: biochemical; details: independent repeats
Method: as §4

[17] = system: Echis ocellatus venom SVSP activity; test: chromogenic SVSP assay; type: biochemical; details: nafamostat 150 nM, independent repeats
Method: as §4

plasma coagulation = type: biochemical, bovine; details: no venom; high doses (150 µM)
Method: as §1

[18] = system: SVSP activity of viper venoms; test: chromogenic SVSP assay, viper venoms overall; type: biochemical
Method: as §4

In the case of `O=S(=O)(O)CC(S)CS` (stereo not drawn) [DMPS, 2,3-dimercapto-1-propanesulfonic acid], the maximum clotting velocity ([1]; inhibitor 15 µM) was 0.09233 and 0.098 and 0.085, the maximum clotting velocity ([1]; inhibitor 150 µM) was 0.03733 and 0.04867 and 0.039 and the maximum clotting velocity ([2]; inhibitor 15 µM) was 0.04261 and 0.04406 and 0.05475. For the same compound, the maximum clotting velocity ([2]; inhibitor 150 µM) was 0.03159 and 0.02725 and 0.0282, the “lowest concentration generally effective / required to fully inhibit SVMP activities” value ([3]; across the active venoms) was 15 µM and the pIC50 ([3]; range across the active venoms, read-out: IC50s, inhibition of venom SVMP activity) was 5.38 to 6.54. The “SVMP activity, percentage of the venom-only sample” value (shortened to “SVMP activity, percentage”) ([4]; inhibitor 15 µM) was 18.6328% and 21.5132% and 17.5016%, the “SVMP activity, percentage” value ([4]; inhibitor 150 µM) was 15.3569% and 14.8369% and 16.006% and the “SVMP activity, percentage” value ([5]; inhibitor 15 µM) was 22.3961% and 20.1207% and 18.6801%. The “SVMP activity, percentage” value ([5]; inhibitor 150 µM) was 20.1452% and 19.0476% and 17.6656%, the “SVMP activity, percentage” value ([6]; inhibitor 15 µM) was 24.5956% and 26.5777% and 20.6819% and the “SVMP activity, percentage” value ([6]; inhibitor 150 µM) was 13.0224% and 14.752% and 12.5581%. The “SVMP activity, percentage” value ([7]; inhibitor 15 µM) was 34.6541% and 41.4523% and 39.2938%, the “SVMP activity, percentage” value ([7]; inhibitor 150 µM) was 33.142% and 30.6392% and 28.5849% and the maximum clotting velocity ([8]; inhibitor 15 µM) was 0.04133 and 0.038 and 0.05133. For the same compound, the maximum clotting velocity ([8]; inhibitor 150 µM) was 0.033 and 0.04 and 0.03533, the “neutralizing the procoagulant activity” value ([9]; D. russelii venom) was “ineffective” and the maximum clotting velocity ([9]; inhibitor 15 µM) was 0.1186 and 0.1081 and 0.1102. The maximum clotting velocity ([9]; inhibitor 150 µM) was 0.07853 and 0.08841 and 0.07869, the “neutralizing the procoagulant activities” value ([10]; E. ocellatus, E. carinatus and B. asper venoms, highest dose 150 µM) was “effective” and the pIC50 ([10]; range across all venoms, lower end of dimercaprol and marimastat ranges given as < 0.15, read-out: IC50, inhibition of procoagulant venom activity) was 4.59 to 6.10. For the same compound, the “survival time of individual animals (Kaplan-Meier source data)” value (E. ocellatus venom [11]; 90 µg E. ocellatus venom i.p., 120 µg DMPS i.p. 15 mins later, D + AV also 168 µl EchiTAbG i.v. 1 hr after venom, 1 = death (=), 0 = survived (>=), ref Albulescu et al.1) was 12.6 h and 21.51 h and 15.51 h and ≥ 24 h and the “duration for which lethality was prevented” value (E. ocellatus venom [11]; same preclinical model, E. ocellatus) was ~ 8 h.
For `N=C(N)c1ccc2cc(OC(=O)c3ccc(N=C(N)N)cc3)ccc2c1` [nafamostat], the half-life [12] is listed as ~ 8 min, the “protection against venom-induced lethality” value (E. ocellatus venom [13]; 45 µg E. ocellatus venom preincubated with 60 µg of each drug, i.v., 6 h) is listed as “no evident efficacy” and the “thrombin-antithrombin (TAT) levels, range in group” value (E. ocellatus venom [13]; plasma after euthanasia, E. ocellatus venom + 60 µg of each drug, venom-only mean 1127.3, normal mice 10.2–15.9) is listed as 543.9 to 859.1 ng/mL. The “SVSP activity, rate of substrate consumption” value (shortened to “SVSP activity, rate”) ([14]; nafamostat 150 nM) was 0.0636 ΔAbs/time/µg venom and 0.06929 ΔAbs/time/µg venom and 0.08741 ΔAbs/time/µg venom, the “SVSP activity, rate” value ([14]; nafamostat 15 uM) was 0.0014 ΔAbs/time/µg venom and 0.001071 ΔAbs/time/µg venom and 0.001786 ΔAbs/time/µg venom and the “SVSP activity, rate” value ([15]; nafamostat 150 nM) was 0.08494 ΔAbs/time/µg venom and 0.09756 ΔAbs/time/µg venom and 0.1079 ΔAbs/time/µg venom. The “SVSP activity, rate” value ([15]; nafamostat 15 uM) was 0.001726 ΔAbs/time/µg venom and 0.002857 ΔAbs/time/µg venom and 0.003095 ΔAbs/time/µg venom, the “SVSP activity, rate” value ([16]; nafamostat 150 nM) was 0.03413 ΔAbs/time/µg venom and 0.03851 ΔAbs/time/µg venom and 0.04036 ΔAbs/time/µg venom and the “SVSP activity, rate” value ([16]; nafamostat 15 uM) was 0.003733 ΔAbs/time/µg venom and 0.002738 ΔAbs/time/µg venom and 0.004018 ΔAbs/time/µg venom. For the same compound, the “SVSP activity, rate” value [17] was 0.01667 ΔAbs/time/µg venom and 0.02387 ΔAbs/time/µg venom and 0.02696 ΔAbs/time/µg venom, the “effect on normal plasma clotting” value (plasma coagulation) was “dramatically inhibits plasma coagulation” and the “inhibition of SVSP activity” value ([18]; highest doses 150 and 15 µM, irrespective of venom) was “completely inhibiting SVSP activity”. The pIC50 ([18]; range across venoms, read-out: IC50s, inhibition of venom SVSP activity) was 5.97 to 6.92.
